Data as given in ChEMBL document CHEMBL5465560, “Selectivity Literature for EUbOPEN Chemogenomic Library” (2024).

Key:
[1] = target: T1, Megakaryocyte-associated tyrosine-protein kinase (Homo sapiens) (UniProt P42679); experiment: Selectivity interaction (KinomeScan (DiscoverX)) EUB0000655a MATK; conditions: at 10 µM
T1 sequence (whole entry): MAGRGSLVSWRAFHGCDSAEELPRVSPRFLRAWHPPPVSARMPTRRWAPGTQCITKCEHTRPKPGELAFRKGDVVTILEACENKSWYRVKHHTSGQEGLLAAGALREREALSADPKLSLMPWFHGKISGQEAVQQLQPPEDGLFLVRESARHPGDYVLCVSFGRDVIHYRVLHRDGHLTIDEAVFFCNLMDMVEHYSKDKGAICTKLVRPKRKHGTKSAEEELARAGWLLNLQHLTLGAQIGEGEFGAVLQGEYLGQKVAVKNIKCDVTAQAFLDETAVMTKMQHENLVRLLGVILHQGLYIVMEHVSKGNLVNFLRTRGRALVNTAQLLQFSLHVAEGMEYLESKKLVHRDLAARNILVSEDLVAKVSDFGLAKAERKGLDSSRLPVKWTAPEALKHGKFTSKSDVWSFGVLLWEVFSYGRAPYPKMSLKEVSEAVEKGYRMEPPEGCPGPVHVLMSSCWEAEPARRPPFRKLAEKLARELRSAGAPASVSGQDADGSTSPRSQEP

[2] = target: MAP kinase-interacting serine/threonine-protein kinase 2 (Homo sapiens, UniProt Q9HBH9); experiment: Selectivity interaction (KinomeScan (DiscoverX)) EUB0000655a MKNK2; conditions: at 10 µM
[3] = target: T2, Protein kinase C zeta type (Homo sapiens) (UniProt Q05513); experiment: Selectivity interaction (Millipore kinase profiler) EUB0000124b PRKCZ; conditions: at 10 µM
T2 sequence (whole entry): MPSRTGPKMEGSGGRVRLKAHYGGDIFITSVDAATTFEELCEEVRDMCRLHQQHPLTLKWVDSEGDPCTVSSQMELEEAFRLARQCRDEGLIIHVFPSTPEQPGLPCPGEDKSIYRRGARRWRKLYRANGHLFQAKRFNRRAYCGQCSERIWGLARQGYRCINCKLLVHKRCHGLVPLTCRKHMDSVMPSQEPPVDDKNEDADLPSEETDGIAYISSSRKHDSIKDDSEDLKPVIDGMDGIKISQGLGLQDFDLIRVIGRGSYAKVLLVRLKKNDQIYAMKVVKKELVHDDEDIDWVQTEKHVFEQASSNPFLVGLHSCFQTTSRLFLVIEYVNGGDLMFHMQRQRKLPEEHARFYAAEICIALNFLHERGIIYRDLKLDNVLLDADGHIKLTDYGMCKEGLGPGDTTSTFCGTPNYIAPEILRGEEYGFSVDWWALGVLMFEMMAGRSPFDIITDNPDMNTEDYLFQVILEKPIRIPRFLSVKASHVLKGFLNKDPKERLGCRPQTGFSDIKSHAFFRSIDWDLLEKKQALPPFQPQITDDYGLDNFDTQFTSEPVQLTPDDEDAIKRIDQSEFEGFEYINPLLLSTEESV

[4] = target: Homeodomain-interacting protein kinase 3 (Homo sapiens, UniProt Q9H422); experiment: Selectivity interaction (KinomeScan (DiscoverX)) EUB0001619a HIPK3; conditions: at 1 µM
[5] = target: T3, Dual specificity mitogen-activated protein kinase kinase 5 (Homo sapiens) (UniProt Q13163); experiment: Selectivity interaction (KinomeScan (DiscoverX)) EUB0000595a MAP2K5; conditions: at 10 µM
T3 sequence (whole entry): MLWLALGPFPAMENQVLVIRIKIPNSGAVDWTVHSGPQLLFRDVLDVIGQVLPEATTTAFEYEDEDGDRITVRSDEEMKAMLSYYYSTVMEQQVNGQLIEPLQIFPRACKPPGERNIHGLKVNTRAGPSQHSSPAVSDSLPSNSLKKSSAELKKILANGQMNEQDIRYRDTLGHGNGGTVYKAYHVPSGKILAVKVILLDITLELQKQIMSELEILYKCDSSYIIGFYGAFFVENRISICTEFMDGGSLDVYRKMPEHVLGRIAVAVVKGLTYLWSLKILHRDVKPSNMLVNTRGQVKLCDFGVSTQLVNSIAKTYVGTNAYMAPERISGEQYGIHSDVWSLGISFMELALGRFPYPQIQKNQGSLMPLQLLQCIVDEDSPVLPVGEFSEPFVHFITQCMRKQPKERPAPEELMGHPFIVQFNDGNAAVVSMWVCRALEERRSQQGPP

[6] = target: T4, Activin receptor type-1 (Homo sapiens) (UniProt Q04771); experiment: Selectivity interaction (ProQinase) EUB0000171b ACVR1
T4 sequence (whole entry): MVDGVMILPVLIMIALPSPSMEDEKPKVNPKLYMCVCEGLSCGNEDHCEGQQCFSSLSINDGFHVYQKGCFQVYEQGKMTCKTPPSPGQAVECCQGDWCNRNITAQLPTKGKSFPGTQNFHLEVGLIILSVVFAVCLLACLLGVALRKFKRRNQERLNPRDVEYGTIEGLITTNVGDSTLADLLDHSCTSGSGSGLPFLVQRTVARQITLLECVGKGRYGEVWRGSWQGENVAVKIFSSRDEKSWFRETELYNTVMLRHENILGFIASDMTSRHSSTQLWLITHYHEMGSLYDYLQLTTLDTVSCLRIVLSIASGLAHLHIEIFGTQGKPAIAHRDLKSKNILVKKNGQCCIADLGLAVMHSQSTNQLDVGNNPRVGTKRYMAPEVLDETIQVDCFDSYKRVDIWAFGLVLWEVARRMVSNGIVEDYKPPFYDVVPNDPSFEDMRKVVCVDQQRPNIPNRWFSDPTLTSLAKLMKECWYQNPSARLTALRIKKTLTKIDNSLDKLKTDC

[7] = target: T5, Interleukin-1 receptor-associated kinase 4 (Homo sapiens) (UniProt Q9NWZ3); experiment: Selectivity interaction (KinomeScan (DiscoverX)) EUB0000695a IRAK4; conditions: at 100 nM
T5 sequence (whole entry): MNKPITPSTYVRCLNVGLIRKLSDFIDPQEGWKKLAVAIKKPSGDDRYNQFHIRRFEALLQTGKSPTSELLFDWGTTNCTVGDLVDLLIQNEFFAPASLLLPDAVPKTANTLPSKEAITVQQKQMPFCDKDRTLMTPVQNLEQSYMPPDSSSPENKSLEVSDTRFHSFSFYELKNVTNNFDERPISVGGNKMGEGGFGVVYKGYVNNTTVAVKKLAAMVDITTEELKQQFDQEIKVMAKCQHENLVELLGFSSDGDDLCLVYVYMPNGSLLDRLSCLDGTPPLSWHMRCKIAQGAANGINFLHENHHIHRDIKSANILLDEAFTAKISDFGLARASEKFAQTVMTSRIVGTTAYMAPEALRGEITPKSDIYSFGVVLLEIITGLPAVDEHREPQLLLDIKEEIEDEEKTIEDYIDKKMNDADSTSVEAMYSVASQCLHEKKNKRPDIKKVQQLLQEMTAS

Chain of MAP kinase-interacting serine/threonine-protein kinase 2 (Q9HBH9 whole entry, looked up): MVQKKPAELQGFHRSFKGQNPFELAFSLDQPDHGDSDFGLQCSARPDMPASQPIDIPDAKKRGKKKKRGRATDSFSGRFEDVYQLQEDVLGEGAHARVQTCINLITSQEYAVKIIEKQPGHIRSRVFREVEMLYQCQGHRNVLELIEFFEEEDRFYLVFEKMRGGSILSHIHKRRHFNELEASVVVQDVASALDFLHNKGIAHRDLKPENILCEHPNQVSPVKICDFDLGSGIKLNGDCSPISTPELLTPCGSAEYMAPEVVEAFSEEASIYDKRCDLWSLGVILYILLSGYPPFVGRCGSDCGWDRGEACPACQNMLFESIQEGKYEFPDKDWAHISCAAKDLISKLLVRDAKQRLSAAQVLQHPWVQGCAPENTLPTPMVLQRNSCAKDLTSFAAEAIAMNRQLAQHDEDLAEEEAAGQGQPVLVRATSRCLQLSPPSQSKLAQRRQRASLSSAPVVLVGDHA
Chain of Homeodomain-interacting protein kinase 3 (Q9H422 whole entry, looked up): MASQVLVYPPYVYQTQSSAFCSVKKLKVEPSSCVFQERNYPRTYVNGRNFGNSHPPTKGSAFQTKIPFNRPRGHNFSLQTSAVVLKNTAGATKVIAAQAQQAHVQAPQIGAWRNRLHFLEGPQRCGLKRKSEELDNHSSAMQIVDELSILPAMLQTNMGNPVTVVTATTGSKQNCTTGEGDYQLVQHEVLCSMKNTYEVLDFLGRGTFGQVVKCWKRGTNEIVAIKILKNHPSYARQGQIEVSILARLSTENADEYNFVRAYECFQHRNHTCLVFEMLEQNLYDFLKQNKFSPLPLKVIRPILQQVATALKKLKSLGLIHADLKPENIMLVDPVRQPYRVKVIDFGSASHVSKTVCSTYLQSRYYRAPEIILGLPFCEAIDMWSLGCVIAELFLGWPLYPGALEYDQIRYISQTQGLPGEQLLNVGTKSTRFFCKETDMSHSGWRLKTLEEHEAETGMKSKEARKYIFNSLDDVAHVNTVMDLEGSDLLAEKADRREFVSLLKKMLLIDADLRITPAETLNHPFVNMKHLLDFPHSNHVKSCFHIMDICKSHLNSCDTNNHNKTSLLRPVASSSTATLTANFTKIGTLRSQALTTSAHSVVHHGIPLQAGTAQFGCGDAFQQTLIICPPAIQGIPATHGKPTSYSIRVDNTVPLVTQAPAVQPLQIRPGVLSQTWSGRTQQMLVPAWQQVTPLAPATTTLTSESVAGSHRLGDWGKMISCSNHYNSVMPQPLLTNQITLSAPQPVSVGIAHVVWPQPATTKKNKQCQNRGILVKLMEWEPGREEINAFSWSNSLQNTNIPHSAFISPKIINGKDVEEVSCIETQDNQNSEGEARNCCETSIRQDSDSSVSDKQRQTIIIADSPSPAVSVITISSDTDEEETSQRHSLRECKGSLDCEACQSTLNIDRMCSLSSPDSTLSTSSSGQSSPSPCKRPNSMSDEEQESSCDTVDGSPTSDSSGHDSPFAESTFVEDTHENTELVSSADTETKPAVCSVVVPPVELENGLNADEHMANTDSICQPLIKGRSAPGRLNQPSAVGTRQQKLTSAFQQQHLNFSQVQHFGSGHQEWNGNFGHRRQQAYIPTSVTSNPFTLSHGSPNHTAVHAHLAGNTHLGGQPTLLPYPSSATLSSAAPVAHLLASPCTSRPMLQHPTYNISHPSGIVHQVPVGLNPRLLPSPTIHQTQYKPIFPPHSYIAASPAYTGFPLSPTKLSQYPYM

## CN(C)CCOc1ccc(-c2nc(-c3ccncc3)c(-c3ccc4c(c3)CC/C4=N\O)[nH]2)cc1
[1]
  % of control: 100%
[2]
  % of control: 95%

## CC(=O)Nc1cccc(-n2c(=O)n(C3CC3)c(=O)c3c(Nc4ccc(I)cc4F)n(C)c(=O)c(C)c32)c1
[3]
  % of control: 102%

## N#Cc1cccc(-c2c[nH]c3ncnc(N4CCOCC4)c23)c1
[4]
  % of control: 47%

## COCC(=O)NC/C=C/c1ccc2ncnc(Nc3ccc(Oc4ccc(C)nc4)c(C)c3)c2c1 [CP-724714]
[5]
  % of control: 0.2%

## C=CC(=O)Nc1cccc(C(=O)Nc2ccc(Nc3cc(-c4[nH]c(SC)nc4C)ccn3)cc2)c1
[6]; at 1 µM
  % of control: 85%
[6]; at 5 µM
  % of control: 54%

## Cc1cc(F)c(C(=O)Nc2cccc(-c3nncn3C(C)C)n2)cc1-n1cnc(C2CC2)c1
[7]
  % of control: 85%
